According to US9505765B2, “4-alkoxy/aralkoxy-5-substituted-pyrrolopyrimidine compounds as TAK1 inhibitors in disease treatment” (Confluence Life Sciences Inc., priority 2012, dated 2016):

Tests used:
A549 cells = assay: IL-1β stimulated IL-6 Production in A549 cells; type: cell-based; settings: Homo sapiens, 1 ng/ml rhIL1β, 18 hrs; for activity at 5 µM: 5 μM compound, read-out: IL-6 Production % Control 5 μM; for activity at 50 µM: 50 μM compound, read-out: IL-6 Production % Control 50 μM; for IC50: read-out: IL-6 Production IC
Method: IL-1β stimulated IL-6 Production in A549 cells: The cellular efficacy of compound candidates is determined using the human lung epithelial cell line A549 (ATCC #CCL-185), based upon the methods of Wheeler et al. (2004) J. Nutrition 134, 1039-1044, and Eda et al. (2011) Cell Biol. Int. 35, 355-358. A549 cells produce a number of cytokines (IL6, IL8 and TNFα) in response to stimulation with IL1β. To induce the production of inflammatory mediators, A549 cells are plated at a final concentration of 3×10^5 cells/well of a 96 well flat bottom plate in F12-K medium supplemented with 10% fetal bovine serum, 100 units/ml penicillin and 100 μg/ml streptomycin (Gibco BRL Life Technologies). Cells are treated with or without inhibitors for 3 hrs then stimulated with 1 ng/ml rhIL1β (R & D Systems) for an additional 18 hrs at 37° C. with 5% CO2. The supernatants are removed and stored at −20° C. until they are to be assayed. The levels of inflammatory mediators are determined using commercial MSD cytokine kits (Meso Scale Discovery) as per the manufacturer's instructions. Standard curves are based on 7 steps of 4× serial dilutions, with a wide dynamic range of 10000 pg/ml to 2.4 pg/ml, and the blank in triplicate. Lower limit of detection (LLOD) is calculated at the commonly used 3× the standard deviation of the blank.
Compounds were tested in accordance with the above described assay, yielding the values described below: […]

TAK1-TAB1 = TAK1-TAB1 (Homo sapiens (Human), UniProt O43318); assay: TAK1-TAB1 competitive binding assay (LanthaScreen), without pre-incubation; settings: 10 nM TAK1-TAB1, 100 nM kinase tracer-236, read-out: TAK1-TAB1 Inhibition IC50
TAK1-TAB1, sequence (O43318 other isoform, or with tags, fused parts or gaps): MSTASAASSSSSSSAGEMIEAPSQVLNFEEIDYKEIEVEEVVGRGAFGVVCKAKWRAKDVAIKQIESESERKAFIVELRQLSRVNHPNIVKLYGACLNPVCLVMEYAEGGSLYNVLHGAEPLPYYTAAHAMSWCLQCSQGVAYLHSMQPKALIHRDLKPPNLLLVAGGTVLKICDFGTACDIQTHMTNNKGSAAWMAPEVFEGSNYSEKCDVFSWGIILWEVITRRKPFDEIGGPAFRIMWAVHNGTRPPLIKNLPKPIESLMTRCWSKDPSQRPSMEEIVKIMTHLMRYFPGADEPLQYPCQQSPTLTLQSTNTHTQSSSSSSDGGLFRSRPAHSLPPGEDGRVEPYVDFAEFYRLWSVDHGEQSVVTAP
Source text: TAK1-TAB1 Binding Inhibitory Potency: The ability of candidate compounds to interact with TAK1-TAB1 is quantitated by a competitive binding assay using the LanthaScreen technology developed by Life Technologies. This assay is based on the binding of a proprietary, Alexa Fluor® 647-labeled, ATP-competitive kinase inhibitor (kinase tracer-236) to the TAK1-TAB1 construct in presence of a europium-conjugated antibody, resulting in a FRET (fluorescence resonance energy transfer) signal. Displacement of the kinase tracer by compound results in a lower emission ratio upon excitation of the europium chelate. Candidate compounds are designed as potential irreversible inhibitors of TAK1-TAB1, capable of ligating to an active site cysteine residue. The time dependent nature of irreversible inhibition is investigated by performing the binding assay with and without a pre-incubation of compound and TAK1-TAB1.
The inhibitory potency of candidate compounds is measured in 20 mM HEPES pH 7.5, 10 mM MgCl2, 0.01% BSA, 0.0005% Tween-20, and 2% DMSO in the presence of 10 nM TAK1-TAB1, 2 nM Eu-anti-his antibody, and 100 nM kinase tracer-236 using a 384-well plate format. Background signal is defined in the absence of TAK1-TAB1 and uninhibited signal is defined in the presence of vehicle (2% DMSO) alone. Compounds were evaluated in an 11 point dose-response ranging from 20 μM to 0.34 nM. The binding assays are performed under two conditions to evaluate time dependence of inhibition. For the pre-incubation assay, TAK1-TAB1 and Eu-anti-his antibody are preincubated with compound or vehicle for two hours prior to the addition of kinase tracer. The non-preincubated assay is run in which TAK1-TAB1 and Eu-anti-his antibody are added to a mixture of compound and kinase tracer. IC50 values of compounds are determined using a 4 parameter logistical fit of emission ratio as a function of the concentration of compound.
Compounds were tested in accordance with the above described assay, without pre-incubation, yielding the values described below: […]

Row | Structure (SMILES) | activity at 5 µM (A549 cells) | activity at 50 µM (A549 cells) | IC50 (TAK1-TAB1) | IC50 (A549 cells)
1 | CC(C)COc1ncnc2[nH]cc(C=C(F)C(N)=O)c12 (stereo in doubt) [Example 200, (E) 2-fluoro-3-(4-isobutoxy-7H-pyrrolo[2,3-d]pyrimidin-5-yl)-acrylamide] | 61% | 14% | 860 nM | 
2 | CC(C)COc1ncnc2[nH]cc(C#N)c12 [Example 1, 4-isobutoxy-7H-pyrrolo[2,3-d]pyrimidine-5-carbonitrile] | 83% | 6% | 560 nM | 
3 | CC(C)COc1ncnc2[nH]cc(C(=O)CCl)c12 [Example 23, 2-chloro-1-(4-isobutoxy-7H-pyrrolo[2,3-d]pyrimidin-5-yl)ethanone] | 117% | 0% | 280 nM | 12000 nM
4 | CC(C)COc1ncnc2[nH]cc(/C=C/C#N)c12 [Example 35, (E)-3-(4-isobutoxy-7H-pyrrolo[2,3-d]pyrimidin-5-yl)acrylonitrile] |  |  | 210 nM | 
5 | CC(C)COc1ncnc2[nH]cc(/C=C\C#N)c12 [Example 36, (Z)-3-(4-isobutoxy-7H-pyrrolo[2,3-d]pyrimidin-5-yl)acrylonitrile] |  |  | 170 nM | 
6 | CC(=O)/C=C/c1c[nH]c2ncnc(OCC(C)C)c12 [Example 37, (E)-4-(4-isobutoxy-7H-pyrrolo[2,3-d]pyrimidin-5-yl)but-3-en-2-one] |  |  | 100 nM | 
7 | CC(C)COc1ncnc2[nH]cc(/C=C/C(N)=O)c12 [Example 38, (E)-3-(4-isobutoxy-7H-pyrrolo[2,3-d]pyrimidin-5-yl)acrylamide] | 0% | 0% | 3.1 nM | 85 nM
8 | CNC(=O)/C=C/c1c[nH]c2ncnc(OCC(C)C)c12 [Example 39, (E)-3-(4-isobutoxy-7H-pyrrolo[2,3-d]pyrimidin-5-yl)-N-methylacrylamide] | 0% | 0% | 41 nM | 43 nM
9 | N#C/C=C/c1c[nH]c2ncnc(OCc3ccccc3)c12 [Example 93, (E)-3-(4-benzyloxy-7H-pyrrolo[2,3-d]pyrimidin-5-yl)-acrylonitrile] | 21% | 15% |  | 2200 nM
10 | NC(=O)/C=C/c1c[nH]c2ncnc(OCc3ccccc3)c12 [Example 96, (E)-3-(4-benzyloxy-7H-pyrrolo[2,3-d]pyrimidin-5-yl)-acrylamide] | 78% | 0% | 730 nM | 
11 | CCC(=O)/C=C/c1c[nH]c2ncnc(OCC(C)C)c12 [Example 175, (E)-1-(4-isobutoxy-7H-pyrrolo[2,3-d]pyrimidin-5-yl)pent-1-en-3-one] | 3% | 0% | 200 nM | 990 nM
12 | COC(=O)/C=C/c1c[nH]c2ncnc(OCC(C)C)c12 [Example 176, (E)-methyl 3-(4-isobutoxy-7H-pyrrolo[2,3-d]pyrimidin-5-yl)acrylate] | 1% | 0% | 200 nM | 
13 | COC(=O)/C(C)=C/c1c[nH]c2ncnc(OCC(C)C)c12 [Example 177, (E)-methyl 3-(4-isobutoxy-7H-pyrrolo[2,3-d]pyrimidin-5-yl)-2-methylacrylate] | 0% | 0% |  | 620 nM
14 | CC(C)COc1ncnc2[nH]cc(/C=C/C(=O)O)c12 [Example 178, (E)-3-(4-isobutoxy-7H-pyrrolo[2,3-d]pyrimidin-5-yl)acrylic acid] | 68% | 1% | 340 nM | 
15 | CCNC(=O)/C=C/c1c[nH]c2ncnc(OCC(C)C)c12 [Example 179, (E)-N-ethyl-3-(4-isobutoxy-7H-pyrrolo[2,3-d]pyrimidin-5-yl)acrylamide] | 0% | 0% | 340 nM | 87 nM
16 | CC(C)COc1ncnc2[nH]cc(/C=C/C(=O)NCC3CC3)c12 [Example 180, (E)-N-(cyclopropylmethyl)-3-(4-isobutoxy-7H-pyrrolo[2,3-d]pyrimidin-5-yl)acrylamide] | 2% | 0% | 380 nM | 630 nM
17 | CC(C)COc1ncnc2[nH]cc(/C=C/C(=O)NC3CC3)c12 [Example 181, (E)-N-cyclopropyl-3-(4-isobutoxy-7H-pyrrolo[2,3-d]pyrimidin-5-yl)acrylamide] | 1% | 0% | 180 nM | 180 nM
18 | CC(C)COc1ncnc2[nH]cc(/C=C/C(=O)NC[C@H](C)O)c12 [Example 182, (S,E)-N-(2-hydroxypropyl)-3-(4-isobutoxy-7H-pyrrolo[2,3-d]pyrimidin-5-yl)acrylamide] | 36% | 1% | 1600 nM | 3400 nM
19 | CC(C)COc1ncnc2[nH]cc(/C=C/C(=O)NC[C@@H](C)O)c12 [Example 183, (R,E)-N-(2-hydroxypropyl)-3-(4-isobutoxy-7H-pyrrolo[2,3-d]pyrimidin-5-yl)acrylamide] | 78% | 1% | 2500 nM | 12000 nM
20 | CC(C)COc1ncnc2[nH]cc(/C=C/C(=O)N(C)C)c12 [Example 184, (E)-3-(4-isobutoxy-7H-pyrrolo[2,3-d]pyrimidin-5-yl)-N,N-dimethylacrylamide] | 1% | 0% | 97 nM | 190 nM
21 | CC(C)COc1ncnc2[nH]cc(C#CC(N)=O)c12 [Example 186, 3-(4-isobutoxy-7H-pyrrolo[2,3-d]pyrimidin-5-yl)propiolamide] | 1% | 0% |  | 850 nM
22 | CCC(C)Oc1ncnc2[nH]cc(/C=C/C(N)=O)c12 (stereo not drawn) [Example 187, (E)-3-(4-(sec-butoxy)-7H-pyrrolo[2,3-d]pyrimidin-5-yl)acrylamide] | 0% | 0% | 4.3 nM | 190 nM
23 | CC(C)Oc1ncnc2[nH]cc(/C=C/C(N)=O)c12 [Example 188, (E)-3-(4-isopropoxy-7H-pyrrolo[2,3-d]pyrimidin-5-yl)acrylamide] | 0% | 0% | 4.4 nM | 170 nM
24 | CCCOc1ncnc2[nH]cc(/C=C/C(N)=O)c12 [Example 189, (E)-3-(4-propoxy-7H-pyrrolo[2,3-d]pyrimidin-5-yl)acrylamide] | 0% | 0% | 19 nM | 180 nM
25 | NC(=O)/C=C/c1c[nH]c2ncnc(Oc3ccccc3)c12 [Example 190, (E)-3-(4-phenoxy-7H-pyrrolo[2,3-d]pyrimidin-5-yl)acrylamide] | 15% | 0% | 170 nM | 1000 nM
26 | NC(=O)/C=C/c1c[nH]c2ncnc(OCC(F)(F)F)c12 [Example 191, (E)-3-(4-(2,2,2-trifluoroethoxy)-7H-pyrrolo[2,3-d]pyrimidin-5-yl)acrylamide] | 0% | 0% | 33 nM | 150 nM
27 | NC(=O)/C=C/c1c[nH]c2ncnc(OCc3cccc(F)c3)c12 [Example 194, (E)-3-(4-((3-fluorobenzyl)oxy)-7H-pyrrolo[2,3-d]pyrimidin-5-yl)acrylamide] | 1% | 1% |  | 43 nM
